The target in test [1] is T1, Serine/threonine-protein kinase VRK1 (Homo sapiens) (UniProt Q99986).
T1 sequence (whole entry): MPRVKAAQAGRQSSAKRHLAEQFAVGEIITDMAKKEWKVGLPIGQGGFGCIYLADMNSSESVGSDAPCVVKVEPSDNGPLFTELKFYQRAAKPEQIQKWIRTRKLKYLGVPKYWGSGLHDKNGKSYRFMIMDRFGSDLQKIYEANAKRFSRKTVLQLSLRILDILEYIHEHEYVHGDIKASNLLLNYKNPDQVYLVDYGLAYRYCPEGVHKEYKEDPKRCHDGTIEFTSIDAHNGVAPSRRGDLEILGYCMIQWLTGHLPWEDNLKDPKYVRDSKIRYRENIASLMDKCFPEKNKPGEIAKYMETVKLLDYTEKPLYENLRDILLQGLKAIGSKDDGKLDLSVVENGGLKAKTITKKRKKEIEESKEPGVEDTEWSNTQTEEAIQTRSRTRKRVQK

In test [2] the target is Calcium/calmodulin-dependent protein kinase type 1G (Homo sapiens) (UniProt Q96NX5).
The target in test [3] is Casein kinase I isoform gamma-3 (Homo sapiens) (UniProt Q9Y6M4).
For test [4], the target named is Calcium/calmodulin-dependent protein kinase kinase 2 (Homo sapiens, UniProt Q96RR4).
The target of test [5] is Tyrosine-protein kinase JAK1 (Homo sapiens) (UniProt P23458).
The target in test [6] is Calcium/calmodulin-dependent protein kinase type II subunit delta (Homo sapiens) (UniProt Q13557).
In test [7] the target is Casein kinase I isoform gamma-2 (Homo sapiens) (UniProt P78368).
In test [8] the target is 5'-AMP-activated protein kinase catalytic subunit alpha-2 (Homo sapiens) (UniProt P54646).
In test [9] the target is TRAF2 and NCK-interacting protein kinase (Homo sapiens) (UniProt Q9UKE5).
Test [10] deals with Dual specificity mitogen-activated protein kinase kinase 2 (Homo sapiens, UniProt P36507).
In test [11] the target is Calcium/calmodulin-dependent protein kinase type II subunit gamma (Homo sapiens) (UniProt Q13555).
Test [12] deals with T2, Serine/threonine-protein kinase PLK4 (Homo sapiens) (UniProt O00444).
T2 sequence (whole entry): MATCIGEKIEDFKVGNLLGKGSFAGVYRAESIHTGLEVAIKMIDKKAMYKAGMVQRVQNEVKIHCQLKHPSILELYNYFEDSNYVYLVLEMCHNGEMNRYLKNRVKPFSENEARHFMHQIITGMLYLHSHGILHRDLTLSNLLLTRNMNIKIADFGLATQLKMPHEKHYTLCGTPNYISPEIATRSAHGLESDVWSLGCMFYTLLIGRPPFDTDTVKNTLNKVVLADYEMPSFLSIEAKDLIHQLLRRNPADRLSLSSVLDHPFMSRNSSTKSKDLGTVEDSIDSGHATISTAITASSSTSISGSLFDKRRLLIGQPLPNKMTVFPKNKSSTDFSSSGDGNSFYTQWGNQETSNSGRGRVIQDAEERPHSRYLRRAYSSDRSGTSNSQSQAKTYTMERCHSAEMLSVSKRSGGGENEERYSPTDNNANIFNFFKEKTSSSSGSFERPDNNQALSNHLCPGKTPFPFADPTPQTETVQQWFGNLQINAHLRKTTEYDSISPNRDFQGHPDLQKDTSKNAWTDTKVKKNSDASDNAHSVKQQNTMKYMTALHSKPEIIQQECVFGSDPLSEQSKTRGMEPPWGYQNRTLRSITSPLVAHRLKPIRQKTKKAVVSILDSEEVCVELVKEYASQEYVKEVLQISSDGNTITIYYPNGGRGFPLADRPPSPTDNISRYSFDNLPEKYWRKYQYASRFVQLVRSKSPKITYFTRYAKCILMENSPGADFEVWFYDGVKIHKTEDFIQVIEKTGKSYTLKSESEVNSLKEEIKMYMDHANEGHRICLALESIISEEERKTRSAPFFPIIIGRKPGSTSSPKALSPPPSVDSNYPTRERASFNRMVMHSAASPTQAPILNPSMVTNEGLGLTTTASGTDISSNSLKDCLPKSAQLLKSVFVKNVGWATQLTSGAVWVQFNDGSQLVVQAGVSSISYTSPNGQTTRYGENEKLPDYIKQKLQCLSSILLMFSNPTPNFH

In test [13] the target is Casein kinase I isoform gamma-1 (Homo sapiens) (UniProt Q9HCP0).
Test [14] deals with Glycogen synthase kinase-3 beta (Homo sapiens, UniProt P49841).
Test [15] has as its target Dual specificity protein kinase CLK3 (Homo sapiens) (UniProt P49761).
Test [16] concerns the target Mitogen-activated protein kinase 6 (Homo sapiens) (UniProt Q16659).
Test [17] addresses Serine/threonine-protein kinase pim-2 (Homo sapiens, UniProt Q9P1W9).
For test [18], the target named is T3, Calcium/calmodulin-dependent protein kinase type IV (Homo sapiens) (UniProt Q16566).
T3 sequence (whole entry): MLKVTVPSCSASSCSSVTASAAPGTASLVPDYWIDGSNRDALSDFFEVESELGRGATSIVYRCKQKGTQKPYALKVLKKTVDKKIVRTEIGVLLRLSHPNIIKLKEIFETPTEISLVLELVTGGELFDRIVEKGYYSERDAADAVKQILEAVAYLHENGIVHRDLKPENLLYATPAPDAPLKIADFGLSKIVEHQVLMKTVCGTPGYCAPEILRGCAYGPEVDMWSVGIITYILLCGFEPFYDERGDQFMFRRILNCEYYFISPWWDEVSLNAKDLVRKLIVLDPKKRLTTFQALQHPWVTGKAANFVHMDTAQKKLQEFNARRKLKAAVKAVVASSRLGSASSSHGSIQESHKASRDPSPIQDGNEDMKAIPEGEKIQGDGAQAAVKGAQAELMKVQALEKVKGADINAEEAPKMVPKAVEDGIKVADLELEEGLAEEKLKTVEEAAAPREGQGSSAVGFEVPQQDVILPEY

In test [19] the target is Serine/threonine-protein kinase 25 (Homo sapiens) (UniProt O00506).
Test [20] deals with Ribosomal protein S6 kinase alpha-3 (Homo sapiens) (UniProt P51812).

5'-AMP-activated protein kinase catalytic subunit alpha-2 (Homo sapiens), sequence (P54646 whole entry, looked up): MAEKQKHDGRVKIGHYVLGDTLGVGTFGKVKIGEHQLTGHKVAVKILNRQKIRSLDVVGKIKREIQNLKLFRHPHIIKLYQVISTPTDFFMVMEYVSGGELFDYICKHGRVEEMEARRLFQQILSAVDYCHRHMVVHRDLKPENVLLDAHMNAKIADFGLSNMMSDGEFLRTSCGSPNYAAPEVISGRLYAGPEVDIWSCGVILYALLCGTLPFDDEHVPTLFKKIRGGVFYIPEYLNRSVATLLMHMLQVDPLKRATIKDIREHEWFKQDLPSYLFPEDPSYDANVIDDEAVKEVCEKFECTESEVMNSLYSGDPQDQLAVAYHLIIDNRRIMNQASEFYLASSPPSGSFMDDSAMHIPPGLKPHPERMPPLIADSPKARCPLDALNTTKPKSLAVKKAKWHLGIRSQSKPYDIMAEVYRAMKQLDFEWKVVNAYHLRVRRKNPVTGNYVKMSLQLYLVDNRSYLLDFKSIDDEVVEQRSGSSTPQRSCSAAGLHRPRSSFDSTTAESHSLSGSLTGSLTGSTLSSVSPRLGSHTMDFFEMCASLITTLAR
Calcium/calmodulin-dependent protein kinase type II subunit delta (Homo sapiens), sequence (Q13557 whole entry, canonical isoform): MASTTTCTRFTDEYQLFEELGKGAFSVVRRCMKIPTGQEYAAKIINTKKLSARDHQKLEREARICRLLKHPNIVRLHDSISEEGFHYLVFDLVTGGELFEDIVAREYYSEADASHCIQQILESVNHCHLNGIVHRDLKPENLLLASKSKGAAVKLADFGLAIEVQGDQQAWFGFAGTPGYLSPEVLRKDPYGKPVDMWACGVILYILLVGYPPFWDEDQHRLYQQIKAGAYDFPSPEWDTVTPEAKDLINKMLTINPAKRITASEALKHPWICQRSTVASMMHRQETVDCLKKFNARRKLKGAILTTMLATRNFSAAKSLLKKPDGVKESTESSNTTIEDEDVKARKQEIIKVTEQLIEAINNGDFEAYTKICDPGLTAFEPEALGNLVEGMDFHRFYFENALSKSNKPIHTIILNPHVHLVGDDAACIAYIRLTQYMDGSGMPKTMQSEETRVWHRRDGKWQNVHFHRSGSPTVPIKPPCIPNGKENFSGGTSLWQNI
Serine/threonine-protein kinase 25 (Homo sapiens), sequence (O00506 whole entry, looked up): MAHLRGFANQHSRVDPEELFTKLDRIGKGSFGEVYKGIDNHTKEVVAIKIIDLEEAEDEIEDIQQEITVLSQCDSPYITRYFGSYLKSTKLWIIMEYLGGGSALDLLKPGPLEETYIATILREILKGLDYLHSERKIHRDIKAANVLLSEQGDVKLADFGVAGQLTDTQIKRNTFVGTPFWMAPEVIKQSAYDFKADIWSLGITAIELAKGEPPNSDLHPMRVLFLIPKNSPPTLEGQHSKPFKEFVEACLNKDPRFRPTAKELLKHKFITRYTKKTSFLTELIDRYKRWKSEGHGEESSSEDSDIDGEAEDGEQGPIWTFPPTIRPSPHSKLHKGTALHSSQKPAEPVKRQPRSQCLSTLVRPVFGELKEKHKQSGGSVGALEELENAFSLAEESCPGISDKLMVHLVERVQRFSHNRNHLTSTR
Calcium/calmodulin-dependent protein kinase kinase 2, sequence (Q96RR4 2-588 limits assumed): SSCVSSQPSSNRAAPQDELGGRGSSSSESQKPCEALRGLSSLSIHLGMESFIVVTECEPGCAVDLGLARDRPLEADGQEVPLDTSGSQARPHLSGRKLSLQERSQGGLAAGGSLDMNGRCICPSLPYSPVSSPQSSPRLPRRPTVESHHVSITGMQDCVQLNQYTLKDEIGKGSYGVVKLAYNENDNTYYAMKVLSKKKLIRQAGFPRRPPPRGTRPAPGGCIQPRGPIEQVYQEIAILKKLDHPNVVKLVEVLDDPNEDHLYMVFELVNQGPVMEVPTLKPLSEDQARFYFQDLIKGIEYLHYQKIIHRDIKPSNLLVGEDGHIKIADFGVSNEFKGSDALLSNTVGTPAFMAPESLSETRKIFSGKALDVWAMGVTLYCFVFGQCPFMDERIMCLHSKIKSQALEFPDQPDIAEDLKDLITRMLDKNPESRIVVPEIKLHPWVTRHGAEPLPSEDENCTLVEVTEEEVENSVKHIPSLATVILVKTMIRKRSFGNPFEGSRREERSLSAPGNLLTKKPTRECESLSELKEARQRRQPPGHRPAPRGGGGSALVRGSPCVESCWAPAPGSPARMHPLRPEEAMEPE
Dual specificity protein kinase CLK3 (Homo sapiens), sequence (P49761 whole entry, looked up): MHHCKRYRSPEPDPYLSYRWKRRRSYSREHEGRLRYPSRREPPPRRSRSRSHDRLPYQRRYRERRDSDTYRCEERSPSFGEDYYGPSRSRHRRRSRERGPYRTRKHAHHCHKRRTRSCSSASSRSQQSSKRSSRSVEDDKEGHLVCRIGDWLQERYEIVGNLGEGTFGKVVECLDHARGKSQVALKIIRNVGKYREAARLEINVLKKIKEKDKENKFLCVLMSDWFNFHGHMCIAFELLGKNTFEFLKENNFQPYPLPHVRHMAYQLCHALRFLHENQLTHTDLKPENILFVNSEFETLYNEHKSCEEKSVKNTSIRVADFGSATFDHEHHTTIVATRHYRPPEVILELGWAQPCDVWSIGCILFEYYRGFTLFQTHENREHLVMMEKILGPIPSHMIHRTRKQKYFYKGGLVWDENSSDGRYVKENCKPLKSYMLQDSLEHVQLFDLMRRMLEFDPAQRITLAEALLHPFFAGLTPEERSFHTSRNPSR
TRAF2 and NCK-interacting protein kinase (Homo sapiens), sequence (Q9UKE5 whole entry, looked up): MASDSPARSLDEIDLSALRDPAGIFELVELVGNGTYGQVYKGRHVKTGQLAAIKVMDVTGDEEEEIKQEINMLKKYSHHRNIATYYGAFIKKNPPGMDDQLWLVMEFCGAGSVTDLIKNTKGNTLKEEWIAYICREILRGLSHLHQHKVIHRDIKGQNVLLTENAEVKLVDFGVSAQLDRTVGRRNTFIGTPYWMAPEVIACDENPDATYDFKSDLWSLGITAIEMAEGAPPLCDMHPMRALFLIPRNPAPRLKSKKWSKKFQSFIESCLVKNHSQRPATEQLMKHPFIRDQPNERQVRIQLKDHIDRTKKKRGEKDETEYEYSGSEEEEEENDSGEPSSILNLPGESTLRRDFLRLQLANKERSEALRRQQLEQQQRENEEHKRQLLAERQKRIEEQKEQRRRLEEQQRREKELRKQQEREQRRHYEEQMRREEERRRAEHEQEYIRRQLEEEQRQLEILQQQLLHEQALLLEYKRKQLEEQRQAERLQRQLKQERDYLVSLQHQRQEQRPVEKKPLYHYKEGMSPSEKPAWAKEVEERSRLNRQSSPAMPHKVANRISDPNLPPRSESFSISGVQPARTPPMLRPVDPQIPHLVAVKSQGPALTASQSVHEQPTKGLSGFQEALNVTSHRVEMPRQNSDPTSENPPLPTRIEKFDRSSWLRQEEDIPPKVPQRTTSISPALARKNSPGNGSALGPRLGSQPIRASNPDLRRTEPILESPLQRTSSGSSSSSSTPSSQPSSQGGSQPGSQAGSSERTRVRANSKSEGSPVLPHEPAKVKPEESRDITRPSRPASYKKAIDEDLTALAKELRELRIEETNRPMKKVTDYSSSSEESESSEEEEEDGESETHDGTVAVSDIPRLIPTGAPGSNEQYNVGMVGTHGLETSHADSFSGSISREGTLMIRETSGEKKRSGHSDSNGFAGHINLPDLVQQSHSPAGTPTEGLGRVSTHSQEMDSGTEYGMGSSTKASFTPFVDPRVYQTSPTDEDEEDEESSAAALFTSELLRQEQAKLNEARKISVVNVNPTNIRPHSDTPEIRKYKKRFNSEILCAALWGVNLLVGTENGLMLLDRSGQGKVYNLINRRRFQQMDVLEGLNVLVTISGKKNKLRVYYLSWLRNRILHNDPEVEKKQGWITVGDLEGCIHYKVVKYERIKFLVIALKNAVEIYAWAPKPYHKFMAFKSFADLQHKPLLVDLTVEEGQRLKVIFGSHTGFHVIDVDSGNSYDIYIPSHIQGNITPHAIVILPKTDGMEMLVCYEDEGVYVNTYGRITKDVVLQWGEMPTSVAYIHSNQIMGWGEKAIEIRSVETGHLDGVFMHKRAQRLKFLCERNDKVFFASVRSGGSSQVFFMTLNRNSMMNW
Glycogen synthase kinase-3 beta, sequence (P49841 whole entry, looked up): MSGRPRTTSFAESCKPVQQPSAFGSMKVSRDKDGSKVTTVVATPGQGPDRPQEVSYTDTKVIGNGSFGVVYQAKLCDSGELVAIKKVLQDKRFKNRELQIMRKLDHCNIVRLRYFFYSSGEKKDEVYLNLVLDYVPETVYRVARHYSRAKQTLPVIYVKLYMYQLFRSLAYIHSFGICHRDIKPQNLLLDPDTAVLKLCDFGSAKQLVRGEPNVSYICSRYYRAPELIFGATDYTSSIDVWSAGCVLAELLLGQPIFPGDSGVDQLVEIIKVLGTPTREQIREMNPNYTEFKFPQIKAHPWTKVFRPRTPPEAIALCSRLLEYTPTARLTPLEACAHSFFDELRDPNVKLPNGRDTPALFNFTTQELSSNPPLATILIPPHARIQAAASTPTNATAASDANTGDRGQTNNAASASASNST
Calcium/calmodulin-dependent protein kinase type II subunit gamma (Homo sapiens), sequence (Q13555 whole entry): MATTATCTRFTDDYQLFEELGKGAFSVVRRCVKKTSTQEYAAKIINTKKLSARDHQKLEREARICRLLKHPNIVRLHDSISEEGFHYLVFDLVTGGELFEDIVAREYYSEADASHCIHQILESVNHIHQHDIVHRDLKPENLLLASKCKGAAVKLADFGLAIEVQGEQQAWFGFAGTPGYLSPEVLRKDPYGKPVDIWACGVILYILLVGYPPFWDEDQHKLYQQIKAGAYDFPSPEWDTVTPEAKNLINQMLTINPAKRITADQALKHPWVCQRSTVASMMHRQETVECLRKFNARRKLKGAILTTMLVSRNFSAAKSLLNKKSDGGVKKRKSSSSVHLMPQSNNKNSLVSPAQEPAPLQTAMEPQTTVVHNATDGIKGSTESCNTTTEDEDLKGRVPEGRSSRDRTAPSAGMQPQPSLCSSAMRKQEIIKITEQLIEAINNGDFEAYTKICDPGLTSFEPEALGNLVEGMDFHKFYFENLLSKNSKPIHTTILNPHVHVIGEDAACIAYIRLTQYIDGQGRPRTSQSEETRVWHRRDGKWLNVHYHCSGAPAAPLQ

Usually ΔTm stands for the shift of the melting midpoint relative to a reference. On to `COc1ccc(CNC(=O)Nc2ncc([N+](=O)[O-])s2)cc1`, for which the shift in melting temperature (ΔTm) in test [1] is -0.5 °C; in test [2] it was 0.4 °C; in test [3], 0.6 °C; in test [4], 0 °C; in test [5], -0.9 °C; in test [6] it was -0.2 °C. Moreover, the ΔTm is 0.1 °C in test [7]; -0.1 °C in test [8]; 0.3 °C in test [9]; -0.5 °C in [10]; -0.2 °C in [11]; 1 °C in test [12]. Also, the ΔTm is 0.7 °C in test [13]; 7.3 °C in [14]; 0.4 °C in test [15]; 1 °C in test [16]; 0.2 °C in test [17]; -0.1 °C in [18]. The shift in melting temperature (ΔTm) in [19] worked out at 0.1 °C.

Take `COc1cc2ncnc(Nc3cccc(O)c3)c2cc1OC`: the ΔTm in test [3] was 0.8 °C; in test [4] it was 1.1 °C; in test [5] it was 2.1 °C; in [6], -0.6 °C; in test [7], 1.5 °C; in [8], -0.5 °C. The ΔTm came out at 0.9 °C in test [9]; 0.1 °C in test [10]; 0.5 °C in test [11]; 3.9 °C in test [12]; 1.3 °C in test [13]; 2.2 °C in [14]. Also, the ΔTm worked out at 0.5 °C in test [15]; 0.1 °C in test [16]; 0.6 °C in test [17]; 0 °C in test [18]; 0.9 °C in test [20]; 0.6 °C in test [19].

Turning to `CC(C)(C)c1nc2c3ccc(F)cc3c3c(=O)[nH]ccc3c2[nH]1`, the ΔTm in test [1] came out at 1.1 °C; in test [2], 1.9 °C; in [3], 0.8 °C; in test [4], 1.3 °C; in test [5] it was 6.9 °C; in test [6], 1.2 °C. Besides, the ΔTm in [7] turned out to be 0.7 °C; in test [8], 6.4 °C; in [9] it was 3 °C; in test [10], 3.6 °C; in test [11] it was 4.5 °C; in test [12], 11.8 °C. The ΔTm was 0.5 °C in test [13]; 3 °C in test [14]; 2.4 °C in test [15]; 0.2 °C in [16]; 5.1 °C in [17]; 4.8 °C in test [18]. Moreover, the ΔTm in test [19] was determined as 2.9 °C.

For `N#C/C(=C1/Nc2ccccc2S1)c1ccnc(NCCc2cccnc2)n1`, the ΔTm in [1] was 1.3 °C; in [2], 2.3 °C; in test [3], 3.4 °C; in test [4], 3.7 °C; in test [5], 7.5 °C; in test [6] it was 2.1 °C. In addition, the shift in melting temperature (ΔTm) in [7] stood at 2.5 °C; in test [8], 6 °C; in test [9], 3.4 °C; in [10] it was 3.8 °C; in test [11] it was 1 °C; in test [12] it was 5.2 °C. For the same molecule, the ΔTm in [13] came to 3.7 °C; in [14] it was 11.4 °C; in [15] it was 4.9 °C; in test [16], 2 °C; in [17] it was 7.4 °C; in [18], 1.4 °C. The ΔTm in test [19] turned out to be 0.8 °C.

Regarding `C[C@@H](N)[C@H]1CC[C@H](C(=O)Nc2ccncc2)CC1`, the ΔTm in test [1] is 0.9 °C; in [2], -0.3 °C; in test [3] it was 0.4 °C; in test [4], -0.8 °C; in [5] it was -0.4 °C; in [6], 0.7 °C. Also, the thermal shift (ΔTm) in test [7] is 0.6 °C; in test [8], 0.5 °C; in [9] it was 0.1 °C; in [10] it was -0.4 °C; in test [11], 1 °C; in test [12], 0.3 °C. Besides, the ΔTm in test [13] was 0.6 °C; in [14] it was 0.6 °C; in [15] it was 1 °C; in test [16], -0.1 °C; in [17], 0.6 °C; in test [18] it was -0.1 °C. In addition, the shift in melting temperature (ΔTm) in test [19] was 0 °C.

As to `Nc1nccc(-c2c(-c3ccc(F)cc3)ncn2C2CCNCC2)n1`, the ΔTm in [1] came to 1.1 °C; in [2], 0.3 °C; in test [3], 2.4 °C; in [4], 0.1 °C; in test [5], 0.7 °C; in test [6], 0.2 °C. In addition, the ΔTm in test [7] is 2 °C; in test [8], 0.4 °C; in test [9], -0.9 °C; in test [10] it was 0.1 °C; in test [11], 0.1 °C; in test [12] it was 0.2 °C. In addition, the ΔTm in [13] was found to be 3 °C; in test [14], 0.9 °C; in test [15] it was 0.1 °C; in test [16] it was 0.3 °C; in [17], 0.2 °C; in [18], 0.2 °C. In addition, the ΔTm in test [20] amounted to 0.8 °C.

Take `O=C1C=C2C(=Nc3c2c2c(c4c3=NC3=C4CCC=C3)C=NC=2)CC1`: the shift in melting temperature (ΔTm) in [1] was found to be 1.1 °C; in test [2] it was 3.6 °C; in test [3] it was 0.8 °C; in [4] it was 6.3 °C; in [5] it was 6.9 °C; in test [6] it was 2 °C. Also, the ΔTm in test [7] is 1.4 °C; in test [8] it was -0.2 °C; in test [9], 1.3 °C; in test [10], 3.1 °C; in test [11], 2.4 °C; in test [12], 2.3 °C. The ΔTm in [13] worked out at 0.9 °C; in test [14], 2.3 °C; in [15], 2.3 °C; in [16], 1.4 °C; in [17], 5.2 °C; in test [18], 0.8 °C. In addition, in test [20], the ΔTm was found to be 4.4 °C.
